{"source": "ChEMBL document CHEMBL3091411", "about": "“Quercetin inhibits inflammatory bone resorption in a mouse periodontitis model” (J Nat Prod, 2013)", "key": {"Mus musculus [1]": {"system": "Mus musculus", "test": "Effect on OPG expression in Aggregatibacter actinomycetemcomitans infected Balb/c mouse model at 100 mg/kg, sc for 15 days post Aggregatibacter actinomycetemcomitans-challenge by Western blotting analysis", "format": "ADME, organism-based", "parameters": "dose 100 mg/kg, route subcutaneous", "conditions": "in vivo, 360 h"}, "Mus musculus [2]": {"system": "Mus musculus", "test": "Antiinflammatory activity in Aggregatibacter actinomycetemcomitans infected Balb/c mouse model assessed as inhibition of IL-1beta production at 100 mg/kg, sc for 15 days post Aggregatibacter actinomycetemcomitans-challenge by ELISA", "format": "functional, organism-based", "parameters": "dose 100 mg/kg"}, "Mus musculus [3]": {"system": "Mus musculus", "test": "Antiinflammatory activity in Aggregatibacter actinomycetemcomitans infected Balb/c mouse model assessed as inhibition of IL-17 production at 100 mg/kg, sc for 15 days post Aggregatibacter actinomycetemcomitans-challenge by ELISA", "format": "functional, organism-based", "parameters": "dose 100 mg/kg"}, "Mus musculus [4]": {"system": "Mus musculus", "test": "Antiperiodontitic activity in Aggregatibacter actinomycetemcomitans infected Balb/c mouse model assessed as downregulation of ICAM-1 expression at 100 mg/kg, sc for 15 days post Aggregatibacter actinomycetemcomitans-challenge by Western blotting analysis", "format": "functional, organism-based", "parameters": "dose 100 mg/kg"}, "Mus musculus [5]": {"system": "Mus musculus", "test": "Antiperiodontitic activity in Aggregatibacter actinomycetemcomitans infected Balb/c mouse model assessed as inhibition of alveolar bone loss at 100 mg/kg, sc for 15 days post Aggregatibacter actinomycetemcomitans-challenge by methylene blue staining-based microscopic analysis", "format": "functional, organism-based", "parameters": "dose 100 mg/kg"}, "Mus musculus [6]": {"system": "Mus musculus", "test": "Antiinflammatory activity in Aggregatibacter actinomycetemcomitans infected Balb/c mouse model assessed as inhibition of TNFalpha production at 100 mg/kg, sc for 15 days post Aggregatibacter actinomycetemcomitans-challenge by ELISA", "format": "functional, organism-based", "parameters": "dose 100 mg/kg"}, "[7]": {"system": "Aggregatibacter actinomycetemcomitans", "test": "Antimicrobial activity against Aggregatibacter actinomycetemcomitans infected in Balb/c mouse measured per 10^6 colonies at 100 mg/kg, sc measured 14 days post-infection by Gram staining technique (reference value: 6.41 +/- 0.96)", "format": "functional", "conditions": "route subcutaneous"}, "Mus musculus [8]": {"system": "Mus musculus", "test": "Antiperiodontitic activity in Aggregatibacter actinomycetemcomitans infected Balb/c mouse model assessed as downregulation of RANKL expression at 100 mg/kg, sc for 15 days post Aggregatibacter actinomycetemcomitans-challenge by Western blotting analysis", "format": "functional, organism-based", "parameters": "dose 100 mg/kg"}}, "note": "Active and inactive are the calls of the source. The calls are words filed in the database; no cut-off is given here.", "data": [{"smiles": "O=c1c(O)c(-c2ccc(O)c(O)c2)oc2cc(O)cc(O)c12", "note": "[QUERCETIN]", "values": [{"measurement": "Activity", "setting": "Mus musculus [1]", "value": "Non-toxic"}, {"measurement": "inhibition", "setting": "Mus musculus [2]", "value": "Active"}, {"measurement": "inhibition", "setting": "Mus musculus [3]", "value": "Active"}, {"measurement": "Activity", "setting": "Mus musculus [4]", "value": "Active"}, {"measurement": "inhibition", "setting": "Mus musculus [5]", "value": "Active"}, {"measurement": "inhibition", "setting": "Mus musculus [6]", "value": "Active"}, {"measurement": "CFU", "setting": "[7]", "value": 5.86}, {"measurement": "Activity", "setting": "Mus musculus [8]", "value": "Active"}]}]}
